Data from the supplement of paper PMC10307832.

Key:
Assay in all cases: relative viability (nuclei count vs DMSO), 5 days (fraction); higher = more cells survive
Axitinib + Navitoclax = compound: CNC(=O)c1ccccc1Sc1ccc2c(/C=C/c3ccccn3)n[nH]c2c1 [Axitinib] + CC1(C)CCC(c2ccc(Cl)cc2)=C(CN2CCN(c3ccc(C(=O)NS(=O)(=O)c4ccc(N[C@H](CCN5CCOCC5)CSc5ccccc5)c(S(=O)(=O)C(F)(F)F)c4)cc3)CC2)C1 [Navitoclax] (partner 0.5 µM)
In short: (§1)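 Five library-drug doses in √10 steps were combined with a fixed anchor-drug dose, or a single drug was given alone, by pin tool to lung cancer cell lines in 1536-well plates the day after seeding. Nuclei were stained and counted after 5 days. Relative viability is the nuclei count in treated wells over that in vehicle wells, taken as the median of duplicate plates.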

Bemcentinib + Vorinostat = compound: Nc1nc(Nc2ccc3c(c2)CC[C@@H](N2CCCC2)CC3)nn1-c1cc2c(nn1)-c1ccccc1CCC2 [Bemcentinib] + O=C(CCCCCCC(=O)Nc1ccccc1)NO [Vorinostat] (partner 1 µM)
In short: as §1

Bemcentinib + AZD7762 = compound: Nc1nc(Nc2ccc3c(c2)CC[C@@H](N2CCCC2)CC3)nn1-c1cc2c(nn1)-c1ccccc1CCC2 [Bemcentinib] + NC(=O)Nc1cc(-c2cccc(F)c2)sc1C(=O)N[C@H]1CCCNC1 [AZD7762] (partner 0.2 µM)
In short: as §1

Bemcentinib + Decitabine = compound: Nc1nc(Nc2ccc3c(c2)CC[C@@H](N2CCCC2)CC3)nn1-c1cc2c(nn1)-c1ccccc1CCC2 [Bemcentinib] + Nc1ncn([C@H]2C[C@H](O)[C@@H](CO)O2)c(=O)n1 [Decitabine] (partner 2 µM)
In short: as §1

Cell Line	relative viability (Axitinib + Navitoclax; first compound 0.005 µM)	relative viability (Axitinib + Navitoclax; first compound 0.01581 µM)	relative viability (Axitinib + Navitoclax; first compound 0.05 µM)	relative viability (Axitinib + Navitoclax; first compound 0.1581 µM)	relative viability (Axitinib + Navitoclax; first compound 0.5 µM)	relative viability (Bemcentinib + Vorinostat; first compound 0.04 µM)	relative viability (Bemcentinib + Vorinostat; first compound 0.1265 µM)	relative viability (Bemcentinib + Vorinostat; first compound 0.4 µM)	relative viability (Bemcentinib + Vorinostat; first compound 1.265 µM)	relative viability (Bemcentinib + Vorinostat; first compound 4 µM)	relative viability (Bemcentinib + AZD7762; first compound 0.04 µM)	relative viability (Bemcentinib + AZD7762; first compound 0.1265 µM)	relative viability (Bemcentinib + AZD7762; first compound 0.4 µM)	relative viability (Bemcentinib + AZD7762; first compound 1.265 µM)	relative viability (Bemcentinib + AZD7762; first compound 4 µM)	relative viability (Bemcentinib + Decitabine; first compound 0.04 µM)	relative viability (Bemcentinib + Decitabine; first compound 0.1265 µM)	relative viability (Bemcentinib + Decitabine; first compound 0.4 µM)	relative viability (Bemcentinib + Decitabine; first compound 1.265 µM)	relative viability (Bemcentinib + Decitabine; first compound 4 µM)
HARA	0.979	1.08	1.14	1.08	1.19	0.402	0.658	0.573	0.645	0.543	0.326	0.26	0.345	0.185	0.258	0.578	0.651	0.561	0.556	0.518
HCC-827	0.971	0.959	0.998	1.02	1	0.79	0.858	0.783	0.361	0.789	0.19	0.163	0.186	0.198	0.161	0.34	0.347	0.316	0.292	0.332
EPLC-272H	1.19	1.11	1.09	1.18	1.09	0.441	0.458	0.459	0.405	0.58	0.236	0.162	0.186	0.168	0.197	0.373	0.361	0.387	0.397	0.399
LXF-289	0.952	0.944	0.944	0.945	0.928	0.658	0.799	0.662	0.796	0.763	1.16	1.22	1.09	1.19	1.2	0.431	0.323	0.417	0.398	0.364
NCI-H23	0.907	0.947	0.856	0.87	0.893	0.525	0.604	0.675	0.437	0.545	0.282	0.245	0.208	0.201	0.212	0.305	0.302	0.297	0.31	0.328
